Source: US20070099852A1, “CUCURBITACIN COMPOUNDS” (SOUTH DAKOTA STATE UNIVERSITY, priority 2005, published 2007)
Marks after values point to notes of the source that are not given here.

Columns and labels:
HepG2 cells [1] = settings: for cytoprotection on HepG2 cells at 6.25% IC50: compound at 6.25% of its IC50, CCl4 4.5×10^−3 M; for cytoprotection on HepG2 cells at 12.5% IC50: compound at 12.5% of its IC50, CCl4 4.5×10^−3 M; for cytoprotection on HepG2 cells at 20% IC50: compound at 20% of its IC50, CCl4 4.5×10^−3 M; for cytoprotection on HepG2 cells at 50% IC50: compound at 50% of its IC50, CCl4 4.5×10^−3 M
Source text: The activity of two toxins was studied first on HepG2 cells—bromobenzene (BB) and CCl4. Cells were challenged with the toxins at different concentration levels.
Experimental conditions were standardized on silybin. Cells were challenged with CCl4 (4.5×10^−3M) in presence of silybin at various concentrations.
The ratio of IC50-to-EC50 (hereafter T/A) is also indicated in this table, which gives the margin between toxic and cytoprotective concentrations.

HSC-T6 cells [2] = assay: Serum-driven HSC-T6 proliferation, Experiment 1 (4 h challenge); format: cell-based, rat; settings: for Experiment 1 anti-proliferation activity at 100 μM: HSC-T6, measured at 100 μM
Protocol: The proliferation effect of serum on HSC-T6 cells was optimized and cucurbitacin antiproliferative activity was measured. Serum contains a large number of growth factors, hormones and other nutrients, which help cells to grow and multiply. Several trials were conducted. In experiment 1, cells were challenged with cucurbitacin analogs for 4 h and then cells were grown in drug-free media for two additional days.
We established several experimental conditions such as 4 hours of incubation time with cucurbitacin, and 2 day cell incubation with fresh media after challenging with cucurbitacin (Exp. 1). Other experiments involved addition of cucurbitacin for 24 hours over starved cells (Exp. 2) vs. proliferating cells (Exp. 3), and one day incubation of cells with fresh media after challenge. […] Because of that, the challenge time was increased to 24 hours (Exp. 2 and 3).
We modified this approach. Our assay included a second control (ZC) supplemented with no serum intended to measure cucurbitacin anti-proliferation effect relative to the number of cells generated during challenge instead of the total number of cells present in each well.

HSC-T6 cells [3] = assay: Cucurbitacin cytotoxicity on HSC-T6 (Experiment 3); format: cell-based, rat; settings: 24 h
Source text: Cytotoxicity of all cucurbitacin analogs was additionally measured in experiment 3 (Table 8).

[4] = Chromatographic hydrophobicity index (CHI) by RP-HPLC in buffered acetonitrile; format: physicochemical; settings: isochratic and gradient elution of standard mixture
[5] = Chromatographic hydrophobicity index (CHI) by RP-HPLC in buffered methanol; format: physicochemical; settings: isochratic and gradient elution of standard mixture
[6] = gradient elution of standard mixture and correlation with published data; published CHI values; cited from earlier work
[7] = DPPH Stable Free Radical Scavenging Assay; settings: for DPPH activity at 50 μM: up to 30 minutes incubation
Protocol: Cucurbitacin antioxidant activity was studied first by the DPPH® Stable Free Radical Scavenging Assay (Cotelle et al., Free radical Biology & Medicine 20(1): 35-43, 1996). Experimental conditions were optimized on the standard compound ascorbic acid. Data indicated 30% activity at 50 μM concentration, and 100% activity at 100 μM for ascorbic acid. While the original assay required 10 minutes incubation time for the reaction to occur, this time was increased up to 30 minutes in case cucurbitacin were reacting slower than other reagents.

HepG2 cells [8] = format: cell-based, human; settings: HepG2, toxin at 4.5×10^−3 M
Protocol: The activity of two toxins was studied first on HepG2 cells—bromobenzene (BB) and CCl4. Cells were challenged with the toxins at different concentration levels. Precipitate formation was observed when BB was diluted with media prior to addition to the cells; therefore, both the precipitate and the supernatant were added separately over cells to study their toxic effect.

[9] = ABTS Radical Cation Decolorization Assay; settings: 50 μM, 100 μM, and 1.8 mM; up to 2 hours
Protocol: Cucurbitacin B activity was monitored at 50 μM, 100 μM, and 1.8 mM. The time interval was expanded up to 2 hours in case cucurbitacin B was reacting slowly.

HSC-T6 cells [10] = assay: PDGF-driven proliferation of HSC-T6 cells; format: cell-based, rat; settings: HSC-T6, incubation with PDGF for 2 days; not reproducible
Source text: The proliferation assay described by Zhang et al. (Zhang et al., Acta Pharmacol. Sin. 21: 253-256, 2000), was followed to determine the proliferative effect of PDGF on HSC-T6 cells, and yielded to total cell confluency prior to the addition of PDGF to the cells. Therefore, experimental conditions were changed stepwise to reduce cell confluency. When cell concentration was reduced from the initial 10,000 to 4,000 cells/well, and FBS concentration was reduced from 10 to 2%, cell confluency reached approximately 50% prior to the addition of PDGF. […] Further modifications to the initial assay were done such as increase of period of incubation or increase of PDGF concentration. Cells incubation with PDGF for 2 days indicated some degree of proliferation (0-22%), but it was not reproducible from one trial to the other.
The experimental conditions presented by Yang et al. (Yang et al., World J. Gastroenterol. 9: 2050-2053, 2003) were also examined. It involved 1-day cell starvation in serum-free media followed by 3 h challenge with drug candidates and then 2 days incubation with PDGF in serum-free media. In our study, PDGF was added at various concentration levels to starved cells and incubation period with PDGF was increased to 2-to-3 days. However, we could not achieve a stable and significant level of cell proliferation in the presence of PDGF. […]

Compound: COc1cc(C2Oc3cc([C@H]4Oc5cc(O)cc(O)c5C(=O)[C@@H]4O)ccc3OC2CO)ccc1O (some centres unmarked) [Silybin, reference compound]
- cell growth with silybin alone (HepG2 cells [1]; HepG2, silybin alone, 14 to 200 μM): up to 125%
- toxicity of silybin alone on HepG2 cells (HepG2 cells [1]; silybin alone, absence of CCl4, 14 to 200 μM (FIG. 4)): no toxicity
- Experiment 1 anti-proliferation activity at 100 μM (HSC-T6 cells [2]): ˜20% ^a
- Experiment 3 IC50 (μM, T) (HSC-T6 cells [3]): non

Compound: c1ccc2[nH]cnc2c1 [Benzimidazole (20), benzimidazole]
- CHIACN^b (standard compounds) [4]: 43.18 ± 0.12
- CHIMeOH^b (standard compounds) [5]: 41.07 ± 0.04
- CHIACN^c (standard compounds) [6]: 30.71

Compound: CCCC(=O)c1ccccc1 [Butyrophenone (24), butyrophenone]
- CHIACN^b (standard compounds) [4]: 79.32 ± 0.14
- CHIMeOH^b (standard compounds) [5]: 66.79 ± 0.05
- CHIACN^c (standard compounds) [6]: 88.49

Compound: COc1cc2c(c(OC)c1OC)-c1ccc(OC)c(=O)cc1[C@@H](NC(C)=O)CC2 [Colchicine (26), colchicine]
- CHIMeOH^b (standard compounds) [5]: 57.56 + 0.04
- CHIACN^c (standard compounds) [6]: 41.37

Compound: Brc1ccccc1 [Bromobenzene (29), bromobenzene]
- CHIMeOH^b (standard compounds) [5]: 69.43 + 0.07

Compound: CC(C)(O)/C=C/C(=O)[C@](C)(O)C1[C@H](O)C[C@@]2(C)C3CC=C4C(C=C(O[C@@H]5O[C@H](CO)[C@@H](O)[C@H](O)[C@H]5O)C(=O)C4(C)C)[C@]3(C)C(=O)C[C@]12C (some centres unmarked) [I-Gluc, cucurbitacin I glucoside]
- Experiment 1 anti-proliferation activity at 100 μM (HSC-T6 cells [2]): ˜20% ^a

Compound: Cn1c(=O)c2nc(-c3ccccc3)[nH]c2n(C)c1=O [Ph-theophylline (27), phenyltheophylline]
- CHIMeOH^b (standard compounds) [5]: 61.61 ± 0.04
- CHIACN^c (standard compounds) [6]: 52.04

Compound: O=C1O[C@H]([C@@H](O)CO)C(O)=C1O [ascorbic acid]
- DPPH activity at 50 μM [7]: 30%
- DPPH activity at 100 μM ([7]; 100 μM): 100%

Compound: CC(=O)c1ccccc1 [Acetophenone (21), acetophenone]
- CHIACN^b (standard compounds) [4]: 61.93 ± 0.05
- CHIMeOH^b (standard compounds) [5]: 52.47 ± 0.05
- CHIACN^c (standard compounds) [6]: 64.90

Compound: ClC(Cl)(Cl)Cl [CCl4]
- cell viability (HepG2 cells [8]): 40%-50%

Compound: Cn1c(=O)c2[nH]cnc2n(C)c1=O [Theophylline (19), theophylline]
- CHIACN^b (standard compounds) [4]: 32.63 ± 0.07
- CHIMeOH^b (standard compounds) [5]: 25.76 ± 0.05
- CHIACN^c (standard compounds) [6]: 15.76

Compound: CC(C)(O)/C=C/C(=O)[C@](C)(O)[C@H]1[C@H](O)C[C@@]2(C)[C@@H]3CC=C4[C@@H](C=C(O)C(=O)C4(C)C)[C@]3(C)C(=O)C[C@]12C [I, cucurbitacin I]
- cytoprotection on HepG2 cells at 6.25% IC50 (HepG2 cells [1]): 4.55 ± 0.64
- cytoprotection on HepG2 cells at 12.5% IC50 (HepG2 cells [1]): 17.50 ± 1.32
- cytoprotection on HepG2 cells at 20% IC50 (HepG2 cells [1]): 50.09 ± 1.02
- cytoprotection on HepG2 cells at 50% IC50 (HepG2 cells [1]): 54.75 ± 0.29

Compound: c1ccc2[nH]ccc2c1 [Indole (22), indole]
- CHIACN^b (standard compounds) [4]: 67.73 + 0.13
- CHIACN^c (standard compounds) [6]: 69.15

Compound: Nc1ccccc1 [Aniline (28), aniline]
- CHIMeOH^b (standard compounds) [5]: 29.94 ± 0.05

Compound: CCC(=O)c1ccccc1 [Propiophenone (23), propiophenone]
- CHIACN^b (standard compounds) [4]: 71.72 + 0.15
- CHIMeOH^b (standard compounds) [5]: 60.41 + 0.04
- CHIACN^c (standard compounds) [6]: 78.41

Compound: CC(C)OC1=CC2C(=CCC3C2(C)C(=O)CC2(C)C(C(C)(O)C(=O)C=CC(C)(C)O)C(O)CC32C)C(C)(C)C1=O (centres unmarked) [I-iPr]
- cytoprotection on HepG2 cells at 6.25% IC50 (HepG2 cells [1]): −17.10 ± 1.54
- cytoprotection on HepG2 cells at 12.5% IC50 (HepG2 cells [1]): 4.15 ± 0.48
- cytoprotection on HepG2 cells at 20% IC50 (HepG2 cells [1]): 18.69 ± 0.13
- cytoprotection on HepG2 cells at 50% IC50 (HepG2 cells [1]): 41.73 ± 2.06

Compound: CC(=O)OC(C)(C)/C=C/C(=O)[C@](C)(O)[C@H]1[C@H](O)C[C@@]2(C)[C@@H]3CC=C4[C@H](C[C@H](O)C(=O)C4(C)C)[C@]3(C)C(=O)C[C@]12C [B, cucurbitacin B]
- cytoprotection on HepG2 cells at 6.25% IC50 (HepG2 cells [1]): 12.45 ± 1.11
- cytoprotection on HepG2 cells at 12.5% IC50 (HepG2 cells [1]): 25.25 ± 1.36
- cytoprotection on HepG2 cells at 20% IC50 (HepG2 cells [1]): 34.92 ± 2.76
- cytoprotection on HepG2 cells at 50% IC50 (HepG2 cells [1]): 60.01 ± 0.80
- DPPH activity at 50 μM [7]: did not indicate any activity
- ABTS activity [9]: No activity

Compound: CCCOC1=CC2C(=CCC3C2(C)C(=O)CC2(C)C(C(C)(O)C(=O)C=CC(C)(C)O)C(O)CC32C)C(C)(C)C1=O (centres unmarked) [I-nPr, cucurbitacin I-nPr]
- Experiment 1 anti-proliferation activity at 2-6 μM (HSC-T6 cells [2]; HSC-T6, measured at 2-6 μM): ˜18% ^b

Compound: CCCCC(=O)c1ccccc1 [Valerophenone (25), valerophenone]
- CHIACN^b (standard compounds) [4]: 86.66 ± 0.08
- CHIMeOH^b (standard compounds) [5]: 73.05 + 0.12
- CHIACN^c (standard compounds) [6]: 97.67

Compound: cucurbitacin E
- cytoprotection on HepG2 cells at 6.25% IC50 (HepG2 cells [1]): 12.41 ± 0.78
- cytoprotection on HepG2 cells at 12.5% IC50 (HepG2 cells [1]): 21.72 ± 0.75
- cytoprotection on HepG2 cells at 20% IC50 (HepG2 cells [1]): 49.21 ± 1.73
- cytoprotection on HepG2 cells at 50% IC50 (HepG2 cells [1]): 80.55 ± 6.80

Compound: CC(=O)OC(C)(C)/C=C/C(=O)[C@](C)(O)[C@H]1[C@H](O)C[C@@]2(C)[C@@H]3CC=C4[C@@H](C=C(O[C@@H]5O[C@H](CO)[C@@H](O)[C@H](O)[C@H]5O)C(=O)C4(C)C)[C@]3(C)C(=O)C[C@]12C [E-Gluc, cucurbitacin E glucoside]
- cytoprotection on HepG2 cells at 6.25% IC50 (HepG2 cells [1]): −2.36 ± 1.08
- cytoprotection on HepG2 cells at 12.5% IC50 (HepG2 cells [1]): 17.96 ± 1.14
- cytoprotection on HepG2 cells at 20% IC50 (HepG2 cells [1]): 49.44 ± 0.29
- cytoprotection on HepG2 cells at 50% IC50 (HepG2 cells [1]): 33.92 ± 2.92
- Experiment 1 anti-proliferation activity at 100 μM (HSC-T6 cells [2]): ˜46% ^a

Compound: PDGF
- degree of proliferation (HSC-T6 cells [10]): 0-22%
